Measured values published in patent US7049396B2, “Synthetic peptides that inhibit leukocyte superoxide anion production and/or attract leukocytes” (priority 1995, dated 2006).
In brackets after ≈: the same amount, converted by molar mass. Where a SMILES comes first, the peptide text is derived from it.

Tests used:
Salmonella choleraesuis = assay type: cell-based
Experimental: (§1) Plates were incubated at 37° C. for 18 hr. […] Viable bacteria were counted. Tests were repeated on three different days. […] The results were expressed as the mean ± standard deviation. […] S. choleraesuis, ATCC 6962 was used in this experiment. […] Slides were stained with LeukoStat solutions (Fisher, Pittsburgh, Pa.). […] At least 200 neutrophils were examined. […] Tests were repeated on three different days. Results were expressed as the mean±standard deviation.

S. typhimurium = assay: Postantibiotic effect (PAE); assay type: cell-based, Salmonella typhimurium; conditions: 2 hr exposure
Experimental: as §1

[1] = tested on: S. choleraesuis, ATCC 6962; assay: Bacterial susceptibility to neutrophil phagocytosis; assay type: cell-based, Salmonella choleraesuis; conditions: bacteria treated at 8 MICs
Experimental: as §1

porcine neutrophils = assay: Neutrophil chemotaxis, modified Boyden chamber; assay type: cell-based; conditions: peptide at 0.05 μM, 30 min
Experimental: Influence of PR-39 on neutrophil chemotaxis. Chemotaxis of porcine neutrophils was measured by the procedure of Salak et al. (1993). Briefly, PR-14, PR15, PR-16, PR-26, or PR-39 (30 μl in Dulbecco's Modified Eagle's medium) were placed in the bottom chamber of a modified Boyden chamber (Neuro Probe, Cabin John, Md.) and porcine neutrophils (50 μl at 5×10^6 cells/ml) were placed in the top chamber. The chambers were incubated at 37° C. for 30 min. Cells that migrated through the porous membrane (pore size 5 μm) were stained using LeukoStat solution and enumerated. Five microscope fields were counted and the cells that migrated through the membrane were standardized to the medium control and referred to as the migration index.

[2] = tested on: whole-cell NADPH oxidase activity of porcine peripheral blood neutrophils; assay: Whole-cell O2- production, ferricytochrome c reduction; assay type: cell-based
Experimental: Regulation of neutrophil O2^− production by PR-26 and PR-39. • (i) O2^− production assays. Whole-cell O2^− production by por-cine peripheral blood neutrophils was determined by the superoxide dismutase-inhibitable reduction of ferricytochrome c as previously described (Shi et al., 1994a). Cell-free O2^− production was measured as previously described (Leto et al., 1991) using 96-well plates and a Molecular Devices Thermomax microplate reader (Menlo Park, Calif.). Reactions (100 μl) contained 10^6 cell equivalents of human neutrophil cytosol and 5×10^5 cell equivalents of deoxycholate-solubilized membranes prepared from human peripheral blood neutrophils. Reaction mixtures contained 50 mM potassium phosphate (pH 7), 0.2 mM acetylated cytochrome c, 4 mM MgCl2, 1 mM EGTA, 10 μM FAD, 1 μM GTP-γS, and 200 μM NADPH. The reactions were initiated by addition of 40 μM arachidonic acid. Control reactions contained 5 μg of superoxide dismutase. Superoxide anion generation was calculated based on superoxide dismutase-inhibitable changes in cytochrome c absorbance observed at 551 nm. The reactions were followed for 20 min. after addition of arachidonic acid, with absorbance readings taken at 1-min. intervals. Maximum rates of superoxide generation were calculated from a linear least squares fit of 10 consecutive 1-min. data points. Determinations were based on reactions performed in duplicate. • (ii) Binding assays. Neutrophils were disrupted by sonication, and unbroken cells, debris, and granules were removed by centrifuigation (13,000×g for 60 min.). Cytosol fractions were prepared by centrifugation (100,000 g for 45 min.) of the supernatants to remove residual membranes. Cytosolic proteins (15 μg in reducing buffer) were separated on a 7.5% SDS PAGE gel, transferred to PVDF membranes, and probed with biotinylated PR-39 (0.3 μM) for 2 hr. Binding between PR-39 and cytosolic proteins were visualized by a chemiluminescent streptavidin alkaline phosphatase system using an Epson scanner (Torrance, Calif.) and the NIH Image program. PR-39 was labeled with biotin hydrazide at the carboxy-terminus (Pierce Chemical Co., Rockford, Ill.) and purified by gel filtration chromatography.

[3] = tested on: 47 kDa neutrophil cytosol protein; assay: Ligand-blot binding assay with biotinylated PR-39, porcine cytosol; conditions: biotinylated PR-39 probe
p67^phox = assay: Ligand-blot binding assay with biotinylated PR-39, p67phox; conditions: neutrophil cytosolic proteins probed with biotinylated PR-39
Experimental: Regulation of neutrophil O2^− production by PR-26 and PR-39. • (i) O2^− production assays. Whole-cell O2^− production by por-cine peripheral blood neutrophils was determined by the superoxide dismutase-inhibitable reduction of ferricytochrome c as previously described (Shi et al., 1994a). Cell-free O2^− production was measured as previously described (Leto et al., 1991) using 96-well plates and a Molecular Devices Thermomax microplate reader (Menlo Park, Calif.). Reactions (100 μl) contained 10^6 cell equivalents of human neutrophil cytosol and 5×10^5 cell equivalents of deoxycholate-solubilized membranes prepared from human peripheral blood neutrophils. Reaction mixtures contained 50 mM potassium phosphate (pH 7), 0.2 mM acetylated cytochrome c, 4 mM MgCl2, 1 mM EGTA, 10 μM FAD, 1 μM GTP-γS, and 200 μM NADPH. The reactions were initiated by addition of 40 μM arachidonic acid. Control reactions contained 5 μg of superoxide dismutase. Superoxide anion generation was calculated based on superoxide dismutase-inhibitable changes in cytochrome c absorbance observed at 551 nm. The reactions were followed for 20 min. after addition of arachidonic acid, with absorbance readings taken at 1-min. intervals. Maximum rates of superoxide generation were calculated from a linear least squares fit of 10 consecutive 1-min. data points. […]

[4] = target: T1, interaction between GST-p47^phox and recombinant p22^phox (Homo sapiens, UniProt P14598); assay: Solution binding assay GST-p47phox-SH3 / recombinant p22phox; conditions: concentrations close to IC50's of the cell-free oxidase assay
T1 construct: (GST)-p47^phox-SH3 (residues 151–284) fusion protein; made in house; host or cells: p22phox fragment: baculovirus-infected cells (used as lysate)
Experimental: Methods for production of the glutathione S-transferase (GST)-p47^phox-SH3 (residues 151–284) fusion protein have been previously described (Leto et al., 1994). For solution binding assays, lysates of recombinant p22^phox protein (residues 127–195) from baculovirus-infected cells (2.5×10^4 cell equivalents per assay) were mixed with peptides and incubated for 1 hr. at 20° C. with 100 μl of GST-p47^phox bound to glutathione-Sepharose beads (15% suspension). Bound proteins were washed three times in 15 volumes of ice-cold 100 mM KCl/3 mM NaCl/3.5 mM MgCl2/0.15 mM phenylmethanesulfonyl fluoride/10 mM Pipes (pH 7.5), eluted with 1% SDS, and analyzed by SDS-PAGE followed by immunoblotting with mouse anti-p22^phox antibody (mAb 449; A. Verhoeven, Central Laboratories of the Netherlands Red Cross). Controls included blotting of recombinant p22^phox lysate (5×10^3 cell equivalents) alone (p22) and bound complexes detected without competing PR peptides (−).

T1 sequence (P14598 151-284): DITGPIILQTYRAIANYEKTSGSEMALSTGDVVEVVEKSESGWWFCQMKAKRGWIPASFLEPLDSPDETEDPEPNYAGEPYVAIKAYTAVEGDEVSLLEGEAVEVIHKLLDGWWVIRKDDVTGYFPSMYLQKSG
Experimental for Escherichia coli, K88: Briefly, 50 μl of twofold serial dilutions (128 to 0.25 μM) of synthetic peptides were dispensed into wells of 96-well tissue culture plates. Bacteria (E. coli, ATCC 25922; E. coli, K88; S. typhimurium, fresh isolate from a dog; Salmonella choleraesuis ATCC 6962; Streptococcus suis, fresh isolate from porcine spleen; and Staphylococcus aureus) from sheep-blood or brain-heart-infusion agar plates were standardized to 0.5 McFarland in demineralized water using a radiometer/sensititre (Chelsea Instrument Ltd., England). The water/bacteria suspension (100 μl) was immediately transferred to 10 ml of cation-adjusted Muller-Hinton broth and 50 μl of the bacterial suspension then were added to each well of the microtiter plate. Plates were incubated for 20 hr. at 37° C. and MICs were determined. Ten microliters of bacterial suspensions in Muller-Hinton broth also were diluted to determine the actual bacterial concentration using standard colony forming unit (CFU) counting. After determination of the MICs, 10 μl of each bacteria-peptide suspension were plated on sheep-blood or brain-heart-infusion agar plates and incubated for 24 hr. at 37° C. to determine the MBCs. MBC was considered that peptide concentration that inhibited 99.9% of the original CFUs (NCCLS, 1990). • (iv) PAE.

For `CC[C@H](C)[C@H](NC(=O)[C@H](CCCNC(=N)N)NC(=O)[C@@H]1CCCN1C(=O)[C@@H]1CCCN1C(=O)[C@H](CC(C)C)NC(=O)[C@H](CCCNC(=N)N)NC(=O)[C@@H]1CCCN1C(=O)[C@@H]1CCCN1C(=O)[C@H](Cc1ccccc1)NC(=O)[C@H](Cc1ccccc1)NC(=O)[C@@H]1CCCN1C(=O)[C@@H]1CCCN1C(=O)[C@@H]1CCCN1C(=O)[C@H](CCCNC(=N)N)NC(=O)[C@@H]1CCCN1C(=O)[C@H](CCCNC(=N)N)NC(=O)[C@@H]1CCCN1C(=O)[C@H](CC(C)C)NC(=O)[C@H](Cc1ccc(O)cc1)NC(=O)[C@@H]1CCCN1C(=O)[C@@H]1CCCN1C(=O)[C@H](CCCNC(=N)N)NC(=O)[C@@H]1CCCN1C(=O)[C@H](CCCNC(=N)N)NC(=O)[C@H](CCCNC(=N)N)NC(=O)[C@@H](N)CCCNC(=N)N)C(=O)N1CCC[C@H]1C(=O)N1CCC[C@H]1C(=O)NCC(=O)N[C@@H](Cc1ccccc1)C(=O)N1CCC[C@H]1C(=O)N1CCC[C@H]1C(=O)N[C@@H](CCCNC(=N)N)C(=O)N[C@@H](Cc1ccccc1)C(=O)N1CCC[C@H]1C(=O)N1CCC[C@H]1C(=O)N[C@@H](CCCNC(=N)N)C(=O)N[C@@H](Cc1ccccc1)C(=O)N1CCC[C@H]1C(=O)O` [PR-39] (H-RRRPRPPYLPRPRPPPFFPPRLPPRIPPGFPPRFPPRFP-OH; N-terminus and C-terminus assumed), the MBC (Salmonella choleraesuis) was 4 µM (≈ 18.9 µg/mL), the MIC (Salmonella choleraesuis) was 2 µM (≈ 9.44 µg/mL) and the “PAE (growth delay)” value (S. typhimurium; 0.1 MIC) was “slight growth delay”. For the same compound, the PAE (S. typhimurium; 1 MIC) was “significantly increased”, the PAE (S. typhimurium; 8 MICs) was “significantly increased” and the “phagocytic index of porcine neutrophils” value [1] was “did not increase”. For the same compound, the “neutrophil chemotaxis (migration index)” value (porcine neutrophils) was “chemotactic agents”, the “O2- generation by neutrophils” value ([2]; 5 μM, incubated at least 45 min. before PMA stimulation) was “significant reduction” and the oxidase inhibition ([2]; 5 μM, longer pre-incubation periods before PMA) was roughly 70%. The “O2- generation by neutrophils” value ([2]; 20 μM added at the same time as PMA) was “did not affect”, the “binding to 47 kDa cytosolic protein” value [3] was “bound” and the “binding to p67phox” value (p67^phox) was “did not bind”. The “blocking of interaction between GST-p47phox and recombinant p22phox” value [4] was “effectively blocked”, the MBC (Escherichia coli, K88) was 4 µM (≈ 18.9 µg/mL) and the MIC (Escherichia coli, K88) was 2 µM (≈ 9.44 µg/mL). The neutrophil viability (neutrophils) was “did not affect neutrophil viability”.
